From US12077503B2, “Substituted cyclic amides and their use as herbicides” (FMC CORPORATION, priority 2015, dated 2024)

Experiments:
Assay type in all cases: in vivo
[1] = test system: velvetleaf (Abutilon theophrasti); test: Test G Post-Emergence Protocol; conditions: Abutilon theophrasti, post-emergence, 312 h
Procedure, shortened: (§1)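 Damage was rated 13 days after treatment from 0 (none) to 100 (plant killed). Compound was applied as a spray at 15.625, 62.5 or 250 g/ha in 50:50 acetone/water containing 0.5% Tween 20, onto 8-day-old potted plants kept in a glasshouse (24/16 °C, 14 h light, 65% humidity).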

[2] = test system: corn (Zea mays); test: Test G Post-Emergence Protocol; conditions: Zea mays, post-emergence, 312 h
Procedure, shortened: as §1

[3] = test system: redroot pigweed (Amaranthus retroflexus); test: Test G Post-Emergence Protocol; conditions: Amaranthus retroflexus, post-emergence, 312 h
Procedure, shortened: as §1

[4] = test system: giant foxtail (Setaria faberi); test: Test G Post-Emergence Protocol; conditions: Setaria faberi, post-emergence, 312 h
Procedure, shortened: as §1

[5] = test system: barnyardgrass (Echinochloa crus-galli); test: Test G Post-Emergence Protocol; conditions: Echinochloa crus-galli, post-emergence, 312 h
Procedure, shortened: as §1

[6] = test system: ivy-leaved morning glory (Ipomoea hederacea); test: Test G Post-Emergence Protocol; conditions: Ipomoea, post-emergence, 312 h
Procedure, shortened: as §1

[7] = test system: velvetleaf (Abutilon theophrasti); test: Test G Pre-Emergence Protocol; conditions: Abutilon theophrasti, pre-emergence, 312 h, evaluated after 13 days
Procedure, shortened: (§2)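 One day after sowing, pots are treated with a spray of test compound formulated in acetone/water 50:50 plus 0.5% Tween 20, giving 15.625, 62.5 or 250 g/ha. Evaluation on a 0–100 damage scale follows 13 days of glasshouse growth.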

[8] = test system: corn (Zea mays); test: Test G Pre-Emergence Protocol; conditions: Zea mays, pre-emergence, 312 h, evaluated after 13 days
Procedure, shortened: as §2

[9] = test system: redroot pigweed (Amaranthus retroflexus); test: Test G Pre-Emergence Protocol; conditions: Amaranthus retroflexus, pre-emergence, 312 h, evaluated after 13 days
Procedure, shortened: as §2

[10] = test system: giant foxtail (Setaria faberi); test: Test G Pre-Emergence Protocol; conditions: Setaria faberi, pre-emergence, 312 h, evaluated after 13 days
Procedure, shortened: as §2

[11] = test system: barnyardgrass (Echinochloa crus-galli); test: Test G Pre-Emergence Protocol; conditions: Echinochloa crus-galli, pre-emergence, 312 h, evaluated after 13 days
Procedure, shortened: as §2

[12] = test system: ivy-leaved morning glory (Ipomoea hederacea); test: Test G Pre-Emergence Protocol; conditions: Ipomoea, pre-emergence, 312 h, evaluated after 13 days
Procedure, shortened: as §2

Cc1cnc(NC(=O)[C@@H]2C(=O)N(C)C[C@H]2c2ccc(C(F)(F)F)cc2)cn1 (racemic) [Compound 1648]
0%: pest or weed control at 15.625 g/ha ([1]; 15.625 g ai/ha, evaluated after 13 days (100=total damage to plant; 0=no damage to plant), read-out: Velvetleaf damage rating) | pest or weed control at 62.5 g/ha ([1]; 62.5 g ai/ha, evaluated after 13 days, read-out: Velvetleaf damage rating (100=total damage to plant; 0=no damage to plant)) | pest or weed control at 250 g/ha ([1]; 250 g ai/ha, evaluated after 13 days, read-out: damage to plant, Velvetleaf (100=total damage to plant; 0=no damage to plant)) | plant injury at 15.625 g/ha ([2]; 15.625 g ai/ha, evaluated after 13 days (100=total damage to plant; 0=no damage to plant), read-out: Corn damage rating) | plant injury at 62.5 g/ha ([2]; 62.5 g ai/ha, evaluated after 13 days, read-out: Corn damage rating (100=total damage to plant; 0=no damage to plant)) | plant injury at 250 g/ha ([2]; 250 g ai/ha, evaluated after 13 days, read-out: damage to plant, Corn (100=total damage to plant; 0=no damage to plant)) | pest or weed control at 15.625 g/ha ([3]; 15.625 g ai/ha, evaluated after 13 days (100=total damage to plant; 0=no damage to plant), read-out: Pigweed, Redroot damage rating) | pest or weed control at 62.5 g/ha ([3]; 62.5 g ai/ha, evaluated after 13 days, read-out: Pigweed, Redroot damage rating (100=total damage to plant; 0=no damage to plant)) | pest or weed control at 250 g/ha ([3]; 250 g ai/ha, evaluated after 13 days, read-out: damage to plant, Pigweed, Redroot (100=total damage to plant; 0=no damage to plant)) | pest or weed control at 15.625 g/ha ([4]; 15.625 g ai/ha, evaluated after 13 days (100=total damage to plant; 0=no damage to plant), read-out: Foxtail, Giant damage rating) | pest or weed control at 62.5 g/ha ([4]; 62.5 g ai/ha, evaluated after 13 days, read-out: Foxtail, Giant damage rating (100=total damage to plant; 0=no damage to plant)) | pest or weed control at 250 g/ha ([4]; 250 g ai/ha, evaluated after 13 days, read-out: damage to plant, Foxtail, Giant (100=total damage to plant; 0=no damage to plant)) | pest or weed control at 15.625 g/ha ([5]; 15.625 g ai/ha, evaluated after 13 days (100=total damage to plant; 0=no damage to plant), read-out: Barnyardgrass damage rating) | pest or weed control at 62.5 g/ha ([5]; 62.5 g ai/ha, evaluated after 13 days, read-out: Barnyardgrass damage rating (100=total damage to plant; 0=no damage to plant)) | pest or weed control at 250 g/ha ([5]; 250 g ai/ha, evaluated after 13 days, read-out: damage to plant, Barnyardgrass (100=total damage to plant; 0=no damage to plant)) | pest or weed control at 15.625 g/ha ([6]; 15.625 g ai/ha, evaluated after 13 days (100=total damage to plant; 0=no damage to plant), read-out: Morningglory, Ivy-leaved damage rating) | pest or weed control at 62.5 g/ha ([6]; 62.5 g ai/ha, evaluated after 13 days, read-out: Morningglory, Ivy-leaved damage rating (100=total damage to plant; 0=no damage to plant)) | pest or weed control at 250 g/ha ([6]; 250 g ai/ha, evaluated after 13 days, read-out: damage to plant, Morningglory, Ivy-leaved (100=total damage to plant; 0=no damage to plant)) | pest or weed control at 15.625 g/ha ([7]; 15.625 g ai/ha, read-out: Velvetleaf damage rating (100=total damage to plant; 0=no damage to plant)) | pest or weed control at 62.5 g/ha ([7]; 62.5 g ai/ha, 100=total damage to plant, 0=no damage to plant, read-out: plant damage rating, Velvetleaf) | pest or weed control at 250 g/ha ([7]; 250 g ai/ha, read-out: Velvetleaf damage rating (100=total damage to plant; 0=no damage to plant)) | plant injury at 15.625 g/ha ([8]; 15.625 g ai/ha, read-out: Corn damage rating (100=total damage to plant; 0=no damage to plant)) | plant injury at 62.5 g/ha ([8]; 62.5 g ai/ha, 100=total damage to plant, 0=no damage to plant, read-out: plant damage rating, Corn) | plant injury at 250 g/ha ([8]; 250 g ai/ha, read-out: Corn damage rating (100=total damage to plant; 0=no damage to plant)) | pest or weed control at 15.625 g/ha ([9]; 15.625 g ai/ha, read-out: Pigweed, Redroot damage rating (100=total damage to plant; 0=no damage to plant)) | pest or weed control at 62.5 g/ha ([9]; 62.5 g ai/ha, 100=total damage to plant, 0=no damage to plant, read-out: plant damage rating, Pigweed, Redroot) | pest or weed control at 250 g/ha ([9]; 250 g ai/ha, read-out: Pigweed, Redroot damage rating (100=total damage to plant; 0=no damage to plant)) | pest or weed control at 15.625 g/ha ([10]; 15.625 g ai/ha, read-out: Foxtail, Giant damage rating (100=total damage to plant; 0=no damage to plant)) | pest or weed control at 62.5 g/ha ([10]; 62.5 g ai/ha, 100=total damage to plant, 0=no damage to plant, read-out: plant damage rating, Foxtail, Giant) | pest or weed control at 250 g/ha ([10]; 250 g ai/ha, read-out: Foxtail, Giant damage rating (100=total damage to plant; 0=no damage to plant)) | pest or weed control at 15.625 g/ha ([11]; 15.625 g ai/ha, read-out: Barnyard grass damage rating (100=total damage to plant; 0=no damage to plant)) | pest or weed control at 62.5 g/ha ([11]; 62.5 g ai/ha, 100=total damage to plant, 0=no damage to plant, read-out: plant damage rating, Barnyardgrass) | pest or weed control at 250 g/ha ([11]; 250 g ai/ha, read-out: Barnyardgrass damage rating (100=total damage to plant; 0=no damage to plant)) | pest or weed control at 15.625 g/ha ([12]; 15.625 g ai/ha, read-out: Morning-glory, Ivy-leaved damage rating (100=total damage to plant; 0=no damage to plant)) | pest or weed control at 62.5 g/ha ([12]; 62.5 g ai/ha, 100=total damage to plant, 0=no damage to plant, read-out: plant damage rating, Morningglory, Ivy-leaved) | pest or weed control at 250 g/ha ([12]; 250 g ai/ha, read-out: Morningglory, Ivy-leaved damage rating (100=total damage to plant; 0=no damage to plant))
